Assay [1] deals with PARG (Homo sapiens, UniProt Q86W56). As to the kind of experiment: Biochemical assay (PARG, TFMU-ADPr substrate).
Assay [2] has as its system Human breast squamous carcinoma cells HCC1806. As to the kind of experiment: Cell function assay (In-Cell Western, PAR/pADPr after MMS). It is filed as cell-based. The protocol:
2. Cell Function Assay (In-Cell Western)
• 1) Human breast squamous carcinoma cells HCC1806 (ATCC) were seeded to the 384-well plate (Corning, #3764) at 20,000 cells/well, incubated for 24 h in a CO2 (5%) incubator at 37° C. to allow for complete adherence of the cells; • 2) 120 nL compounds or DMSO were added to the 384-well plate by Echo 550 (LABCYTE, #550) (final concentrations of compounds: 30000 nM, 10000 nM, 3000 nM, 1000 nM, 300 nM, 100 nM, 30 nM, 10 nM, 3 nM, 1 nM, 0 nM), and then the cells were incubated for 1 h in a CO2 (5%) incubator at 37° C.; • 3) 40 nL MMS (methyl mesylate, Sigma, #129925)(final concentration: 0.5 mM) was added to the plate by Echo 550, and the cells were treated for 1 h in a CO2 (5%) incubator at 37° C.

The test system of assay [3] is HCC1806. Briefly: Cell viability assay (CellTiter-Glo). It counts as cell-based, Human. The settings on record: HCC1806, 7 days, CellTiter-Glo, read-out: IC50 (nM) in cell viability assay. In general terms: In ATP-based viability assays light output follows the ATP content of the culture.
[4] abbreviates: 4 nM PARG, 66.2 uM TFMU-ADPr, 3 min at room temperature.
The mark [5] stands for this setting: HCC1806, In-Cell Western, MMS treatment, read-out: IC50 (nM) in cell function assay.
Setting [6] is: HCC1806, compound 1 h then 0.5 mM MMS 1 h, PAR/pADPr antibody, In-Cell Western, read-out: IC50 (nM) in cell function assay.

Read-outs that look alike come from different tables or passages of the source.

What is called IC50 is the concentration at which inhibition is half-maximal.

Sequence of PARG (Q86W56 whole entry): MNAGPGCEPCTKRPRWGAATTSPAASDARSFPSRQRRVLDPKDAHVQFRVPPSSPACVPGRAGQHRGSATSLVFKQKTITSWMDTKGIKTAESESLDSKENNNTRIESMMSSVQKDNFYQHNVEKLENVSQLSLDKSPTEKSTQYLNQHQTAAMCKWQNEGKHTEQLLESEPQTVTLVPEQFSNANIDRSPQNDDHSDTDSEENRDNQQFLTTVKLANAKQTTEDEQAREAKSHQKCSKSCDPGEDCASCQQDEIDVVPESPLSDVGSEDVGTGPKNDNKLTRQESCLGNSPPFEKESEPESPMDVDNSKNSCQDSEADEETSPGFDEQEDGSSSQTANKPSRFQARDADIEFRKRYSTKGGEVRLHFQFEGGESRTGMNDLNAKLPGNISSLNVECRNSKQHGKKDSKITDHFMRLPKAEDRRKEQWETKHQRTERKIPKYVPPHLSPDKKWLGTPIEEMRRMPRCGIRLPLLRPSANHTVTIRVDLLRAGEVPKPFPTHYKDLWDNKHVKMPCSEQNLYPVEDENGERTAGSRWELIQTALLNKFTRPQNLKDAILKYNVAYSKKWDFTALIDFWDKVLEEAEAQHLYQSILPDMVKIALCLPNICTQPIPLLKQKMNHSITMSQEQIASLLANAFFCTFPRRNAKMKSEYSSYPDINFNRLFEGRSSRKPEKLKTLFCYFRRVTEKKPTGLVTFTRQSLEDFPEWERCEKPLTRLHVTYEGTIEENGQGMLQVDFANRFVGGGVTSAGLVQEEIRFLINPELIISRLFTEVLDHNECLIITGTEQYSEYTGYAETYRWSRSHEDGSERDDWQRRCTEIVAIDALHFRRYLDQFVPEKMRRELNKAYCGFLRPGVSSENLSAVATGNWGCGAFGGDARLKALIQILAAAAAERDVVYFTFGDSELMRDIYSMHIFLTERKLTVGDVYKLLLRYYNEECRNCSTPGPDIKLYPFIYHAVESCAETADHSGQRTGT

On to `CC(C)C(=O)N1CC=C(c2cc(S(=O)(=O)NC3(C#N)CC3)cn3c(-c4nnc(C(F)F)s4)cnc23)CC1` [Example 12, N-(1-cyanocyclopropyl)-3-(5-(difluoromethyl)-1,3,4-thiadiazol-2-yl)-8-(1-isobutyryl-1,2,3,6-tetrahydropyridin-4-yl)imidazo[1,2-a]pyridine-6-sulfonamide], for which the IC50 is < 100 nM in assay [1] (setting [4]); 2.4 nM in assay [1] (PARG, TFMU-ADPr substrate); 9.15 nM in assay [2] (setting [5]); 500 nM in assay [3]; < 500 nM in assay [3] (Homo sapiens, HCC1806, 168 h).
`CC(C)C(=O)N1CC2(CC=C(c3nc(-c4nnc(C(F)F)s4)n4cc(S(=O)(=O)NC5(C#N)CC5)ccc34)C2)C1` [Example 24, N-(1-cyanocyclopropyl)-3-(5-(difluoromethyl)-1,3,4-thiadiazol-2-yl)-1-(2-isobutyryl-2-azaspiro[3.4]oct-6-en-6-yl)imidazo[1,5-a]pyridine-6-sulfonamide]: the IC50 in assay [1] (setting [4]) is < 100 nM; in assay [1] (PARG, TFMU-ADPr substrate), 2.46 nM; in assay [2] (setting [5]), 52.6 nM; in assay [2] (setting [6]), < 100 nM; in assay [3] it was 500 nM; in assay [3] (Homo sapiens, HCC1806, 168 h), < 500 nM.
In the case of `CC(C)C(=O)N1CCN(c2cc(S(=O)(=O)NC3(C)CC3)cn3c(-c4nnc(C(F)F)s4)ncc23)CC1` [Example 34, 3-(5-(difluoromethyl)-1,3,4-thiadiazol-2-yl)-8-(4-isobutyrylpiperazin-1-yl)-N-(1-methylcyclopropyl)imidazo[1,5-a]pyridine-6-sulfonamide], the IC50 in assay [1] (setting [4]) was < 100 nM; in assay [1] (PARG, TFMU-ADPr substrate) it was 1.22 nM; in assay [2] (setting [5]) it was 5.77 nM; in assay [2] (setting [6]) it was < 100 nM; in assay [3] (Homo sapiens, HCC1806, 168 h), < 500 nM.
With `CC(C)C(=O)N1CCN(c2cc(S(=O)(=O)NC3(CO)CC3)cn3c(-c4nnc(C(F)F)s4)ncc23)CC1` [Example 37, 3-(5-(difluoromethyl)-1,3,4-thiadiazol-2-yl)-N-(1-(hydroxymethyl)cyclopropyl)-8-(4-isobutyrylpiperazin-1-yl)imidazo[1,5-a]pyridine-6-sulfonamide], the IC50 was < 100 nM in assay [1] (setting [4]); 4.7 nM in assay [1] (PARG, TFMU-ADPr substrate); 166 nM in assay [2] (setting [5]); 2670 nM in assay [3] (Homo sapiens, HCC1806, 168 h).
With `CC(C)C(=O)N1CCN(c2cc(S(=O)(=O)NC3(C)COC3)cn3c(-c4nnc(C(F)F)s4)ncc23)CC1` [Example 43, 3-(5-(difluoromethyl)-1,3,4-thiadiazol-2-yl)-8-(4-isobutyrylpiperazin-1-yl)-N-(3-methyloxetan-3-yl)imidazo[1,5-a]pyridine-6-sulfonamide], the IC50 in assay [1] (setting [4]) is < 100 nM; in assay [1] (PARG, TFMU-ADPr substrate), 0.96 nM; in assay [2] (setting [5]), 9.32 nM; in assay [2] (setting [6]), < 100 nM; in assay [3], 283 nM; in assay [3] (Homo sapiens, HCC1806, 168 h), < 500 nM.
Take `CN1CC2(CCN(c3cc(S(=O)(=O)NC4(CF)CC4)cn4c(-c5nnc(C(F)F)s5)nnc34)CC2)CC1=O` [Example 112, 3-(5-(difluoromethyl)-1,3,4-thiadiazol-2-yl)-N-(1-(fluoromethyl)cyclopropyl)-8-(2-methyl-3-oxo-2,8-diazaspiro[4.5]decan-8-yl)-[1,2,4]triazolo[4,3-a]pyridine-6-sulfonamide]: the concentration for half-maximal inhibition (IC50) in assay [1] (setting [4]) was < 100 nM; in assay [1] (PARG, TFMU-ADPr substrate), 3.67 nM; in assay [2] (setting [5]), 36.3 nM; in assay [2] (setting [6]) it was < 100 nM.
Turning to `O=S(=O)(NC1(CF)CC1)c1cc(N2CC3(COCCO3)C2)c2nnc(-c3nnc(C(F)F)s3)n2c1` [Example 113, 3-(5-(difluoromethyl)-1,3,4-thiadiazol-2-yl)-N-(1-(fluoromethyl)cyclopropyl)-8-(5,8-dioxa-2-azaspiro[3.5]nonan-2-yl)-[1,2,4]triazolo[4,3-a]pyridine-6-sulfonamide], the IC50 in assay [1] (setting [4]) is < 100 nM; in assay [1] (PARG, TFMU-ADPr substrate) it was 5.2 nM; in assay [2] (setting [5]) it was 9 nM; in assay [2] (setting [6]) it was < 100 nM.
For `O=S(=O)(NC1(CF)CC1)c1cc(N2CCC(O)(C(F)(F)F)CC2)c2nnc(-c3nnc(C(F)F)s3)n2c1` [Example 115, 3-(5-(difluoromethyl)-1,3,4-thiadiazol-2-yl)-N-(1-(fluoromethyl)cyclopropyl)-8-(4-hydroxy-4-(trifluoromethyl)piperidin-1-yl)-[1,2,4]triazolo[4,3-a]pyridine-6-sulfonamide], the concentration for half-maximal inhibition (IC50) in assay [1] (setting [4]) is < 100 nM; in assay [1] (PARG, TFMU-ADPr substrate), 1.88 nM; in assay [2] (setting [5]), 8.51 nM; in assay [2] (setting [6]), < 100 nM.
Consider `CC(C)C(=O)N1CCN(c2cc(S(=O)(=O)NC3(C#N)CC3)cn3c(-c4nnc(C(F)F)s4)nc(Cl)c23)CC1` [Example 122, 1-chloro-N-(1-cyanocyclopropyl)-3-(5-(difluoromethyl)-1,3,4-thiadiazol-2-yl)-8-(4-isobutyrylpiperazin-1-yl)imidazo[1,5-a]pyridine-6-sulfonamide], for which the IC50 in assay [1] (setting [4]) was < 100 nM; in assay [1] (PARG, TFMU-ADPr substrate), 3.16 nM; in assay [2] (setting [5]), 4.58 nM; in assay [2] (setting [6]), < 100 nM.
As for `CC(C)C(=O)N1CCN(c2cc(S(=O)(=O)NC3(C(F)F)COC3)cn3c(-c4nnc(C(F)F)s4)ncc23)CC1` [Example 149, 3-(5-(difluoromethyl)-1,3,4-thiadiazol-2-yl)-N-(3-(difluoromethyl)oxetan-3-yl)-8-(4-isobutyrylpiperazin-1-yl)imidazo[1,5-a]pyridine-6-sulfonamide], the IC50 in assay [1] (setting [4]) was < 100 nM; in assay [1] (PARG, TFMU-ADPr substrate) it was 6.23 nM; in assay [2] (setting [5]), 57.7 nM; in assay [2] (setting [6]), < 100 nM.
Regarding `[2H]c1nc(-c2nnc(C(F)F)s2)n2cc(S(=O)(=O)NC3(CF)COC3)c(F)c(N3CCN(C(=O)C(C)C)CC3)c12` [Example 154, 3-(5-(difluoromethyl)-1,3,4-thiadiazol-2-yl)-7-fluoro-N-(3-(fluoromethyl)oxetan-3-yl)-8-(4-isobutyrylpiperazin-1-yl)imidazo[1,5-a]pyridine-6-sulfonamide-1-d], the IC50 in assay [1] (setting [4]) is < 100 nM; in assay [1] (PARG, TFMU-ADPr substrate), 8.22 nM; in assay [2] (setting [5]), 9.94 nM; in assay [2] (setting [6]) it was < 100 nM.
`[2H]C([2H])([2H])C1(NS(=O)(=O)c2cc(N3CCN(C(=O)C(C)C)CC3)c3cnc(-c4nnc(C(F)F)s4)n3c2)CC1` [Example 161, 3-(5-(difluoromethyl)-1,3,4-thiadiazol-2-yl)-8-(4-isobutyrylpiperazin-1-yl)-N-(1-(methyl-d3)cyclopropyl)imidazo[1,5-a]pyridine-6-sulfonamide]: the IC50 in assay [1] (setting [4]) was < 100 nM; in assay [1] (PARG, TFMU-ADPr substrate), 0.88 nM; in assay [2] (HCC1806, 1 h, read-out: IC50 (nM) in cell function assay), < 100 nM; in assay [2] (HCC1806, read-out: IC50 (nM) in cell function assay), 1.02 nM.
Consider `CC(C)C(=O)N1CCN(c2cc(S(=O)(=O)NC3(C)CC3)cn3c(-c4nnc(C(F)F)s4)nc(C#N)c23)CC1` [Example 163, 1-cyano-3-(5-(difluoromethyl)-1,3,4-thiadiazol-2-yl)-8-(4-isobutyrylpiperazin-1-yl)-N-(1-methylcyclopropyl)imidazo[1,5-a]pyridine-6-sulfonamide], for which the IC50 is < 100 nM in assay [1] (setting [4]); 1.58 nM in assay [1] (PARG, TFMU-ADPr substrate); 5.14 nM in assay [2] (setting [5]); < 100 nM in assay [2] (setting [6]).

(Values after US20260258035A1, “FIVE-MEMBERED AND SIX-MEMBERED NITROGEN-CONTAINING COMPOUND, AND INTERMEDIATE, PREPARATION METHOD AND USE THEREOF” (HANGZHOU SYNRX THERAPEUTICS BIOMEDICAL TECHNOLOGY CO., LTD., priority 2022, published 2026).)
